What was measured:
Settings in all cases: 72 h
Calu-3 [1] = test: drug sensitivity score (DSS) for viability; higher = more toxic; extreme values may be limits of the assay
U2OS [2] = test: as above
HepG2 [3] = test: as above
Vero E6 [4] = test: as above
Caco-2 [5] = test: as above
Calu-3 [6] = test: cell viability relative to DMSO; higher = less toxic
U2OS [7] = test: as above
HepG2 [8] = test: as above
Vero E6 [9] = test: as above
Caco-2 [10] = test: as above
Calu-3 [11] = test: relative viability EC50 (midpoint between 100% and the lowest measured viability); higher = less toxic
U2OS [12] = test: as above
HepG2 [13] = test: as above
Vero E6 [14] = test: as above
Caco-2 [15] = test: as above

Compound	drug sensitivity score (Calu-3 [1])	drug sensitivity score (U2OS [2])	drug sensitivity score (HepG2 [3])	drug sensitivity score (Vero E6 [4])	drug sensitivity score (Caco-2 [5])	cell viability (Calu-3 [6]; 1 nM) [%]	cell viability (Calu-3 [6]; 10 nM) [%]	cell viability (Calu-3 [6]; 100 nM) [%]	cell viability (Calu-3 [6]; 1000 nM) [%]	cell viability (Calu-3 [6]; 10000 nM) [%]	cell viability (U2OS [7]; 1 nM) [%]	cell viability (U2OS [7]; 10 nM) [%]	cell viability (U2OS [7]; 100 nM) [%]	cell viability (U2OS [7]; 1000 nM) [%]	cell viability (U2OS [7]; 10000 nM) [%]	cell viability (HepG2 [8]; 1 nM) [%]	cell viability (HepG2 [8]; 10 nM) [%]	cell viability (HepG2 [8]; 100 nM) [%]	cell viability (HepG2 [8]; 1000 nM) [%]	cell viability (HepG2 [8]; 10000 nM) [%]	cell viability (Vero E6 [9]; 1 nM) [%]	cell viability (Vero E6 [9]; 10 nM) [%]	cell viability (Vero E6 [9]; 100 nM) [%]	cell viability (Vero E6 [9]; 1000 nM) [%]	cell viability (Vero E6 [9]; 10000 nM) [%]	cell viability (Caco-2 [10]; 1 nM) [%]	cell viability (Caco-2 [10]; 10 nM) [%]	cell viability (Caco-2 [10]; 100 nM) [%]	cell viability (Caco-2 [10]; 1000 nM) [%]	cell viability (Caco-2 [10]; 10000 nM) [%]	relative viability EC50 (Calu-3 [11]) [µM]	relative viability EC50 (U2OS [12]) [µM]	relative viability EC50 (HepG2 [13]) [µM]	relative viability EC50 (Vero E6 [14]) [µM]	relative viability EC50 (Caco-2 [15]) [µM]
OC[C@H]1O[C@@H](O[C@@H]2[C@H](O)[C@@H](O)[C@H](O[C@H]3[C@H](O)[C@@H](O)C(O)O[C@@H]3CO)O[C@@H]2CO)[C@H](O)[C@@H](O)[C@H]1O (stereo partly drawn) [4-galactosyllactose]	0	0	0	0	2.5	102	99.3	98.2	93.3	101	103	96.4	102	94.8	101	111	113	101	102	98.3	97.3	105	103	101	99.2	118	96.6	123	78.8	91.7	> 10	> 10	> 10	> 10	> 10
COc1cc2c(cc1OCCCN1CCCC1)N=C(N)C21CCC1 [A-366]	0	0	–	0	0	97.3	106	102	103	95.4	103	102	98.9	105	95.2	–	–	–	–	–	101	98.1	93.6	94.4	97.8	91.2	95.4	97.5	104	92	> 10	> 10	–	> 10	> 10
CCN1C(C)(C)CC(Oc2ccc(C(=O)Nc3ccc(NC(=O)Nc4cc(C(C)(C)C)on4)cc3)nc2)CC1(C)C [AC-710]	0.2	0	0	0	0	108	105	97.4	89.4	94	98.9	97	98.9	99.9	94.3	100	97.7	94.1	105	87.3	101	106	99.9	104	96.8	100	89.4	100	94.4	88.2	> 10	> 10	> 10	> 10	> 10
OB1OCc2cc(Cl)ccc21 [AN2718]	0	0	0	0	0.4	100	89	90.6	102	92.8	101	98	96.1	98.2	98.7	120	107	107	94	108	101	99.8	94.7	96.9	103	93.8	102	82.2	98.8	82.7	> 10	> 10	> 10	> 10	> 10

Reference: the supplement of paper PMC13380429
